Reference: patent publication US20230310442A1, “POLY HYDROXY OLIGOMER COATED DOLUTEGRAVIR AQUASOMES AND METHOD THEREOF” (priority 2020, published 2023)

Key:
human plasma proteins = details: cited from earlier work
[1] = cited from earlier work
[2] = In vitro drug dissolution, USP Type II apparatus; type: physicochemical
Procedure: In vitro drug dissolution studies 01 In vitro dissolution studies of the pure dolutegravir (PD) and its aquasomal formulations (F1 to F6) were carried out using USP-Type II dissolution apparatus. 900 ml of pH 6.8 phosphate buffer was used as dissolution media and temperature was maintained at 37° C.±0.5° C. with paddle rotation speed at 50 rpm. Aliquots of 5 ml were withdrawn at various intervals and were replaced with same quantity of fresh dissolution medium to maintain the sink condition. Samples were filtered through wattman filter paper and analysed UV—Vis spectrophotometrically at 259.80 nm. The dissolution experiments were conducted in triplicate and the cumulative percentage of drug release was calculated. […] Dissolution efficiency (DE) values were calculated as per Khan^1 and T50 (time taken for 50% dissolution) values were recorded from the dissolution profiles.
A comparative in vitro drug release study was performed in pH 6.8 phosphate buffer for pure dolutegravir sodium (PD) and all designed formulations (F1-F6), the data was shown in Table 7. The dissolution experiments were conducted in triplicate. Dissolution efficiency (DE5) values were calculated as per Khan^1. T50 (time taken for 50% dissolution) values were recorded from the dissolution profiles.
The dissolution data of formulations PD and dolutegravir aquasomes were fitted into mathematical models such as zero order, first order and Hixson Crowell models kinetics and the plots were shown in Table No: 8. The release kinetics of pure drug (PD) and dolutegravir aquasomes follows zero order as well as Hixson Crowell model because the values of regression coefficient obtained for zero order release profiles are higher as compared to first order kinetics. […] The cube root dissolution rate constant (KH) of Hixson Crowell values of PD is 0.124 and optimized formulation F6 is 0.713. During dissolution, the radius of the particle, mass of the particle was changed. […]

UGT1A1 = biological target: T1, UGT1A1 (Homo sapiens, UniProt P22309); details: cited from earlier work
T1 sequence (P22309 26-533): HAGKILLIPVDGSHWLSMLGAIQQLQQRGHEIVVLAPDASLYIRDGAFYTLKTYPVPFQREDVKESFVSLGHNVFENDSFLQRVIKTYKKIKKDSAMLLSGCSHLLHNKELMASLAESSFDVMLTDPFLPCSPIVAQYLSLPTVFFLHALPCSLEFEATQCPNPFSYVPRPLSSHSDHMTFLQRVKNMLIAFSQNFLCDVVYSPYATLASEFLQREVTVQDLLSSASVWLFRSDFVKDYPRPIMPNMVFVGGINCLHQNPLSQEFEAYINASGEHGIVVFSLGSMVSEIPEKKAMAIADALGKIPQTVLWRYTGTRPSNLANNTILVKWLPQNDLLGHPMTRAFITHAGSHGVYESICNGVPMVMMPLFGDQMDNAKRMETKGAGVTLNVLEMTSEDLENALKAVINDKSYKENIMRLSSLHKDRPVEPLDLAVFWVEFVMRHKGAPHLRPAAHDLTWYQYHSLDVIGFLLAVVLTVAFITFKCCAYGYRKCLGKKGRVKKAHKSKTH

[3] = test system: herpes simplex virus (HSV) infected vero cells; assay: In vitro MTT antiviral assay; type: cell-based; details: 0.01 to 100 μ/mL
[4] = cited from earlier work; remark: listed apart in the source
[5] = Preformulation study: solubility of dolutegravir sodium in water; type: physicochemical; details: preformulation studies
Procedure: Preformulation studies of dolutegravir sodium were performed to know the physical appearance and organoleptic properties.

C[C@@H]1CCO[C@H]2Cn3cc(C(=O)NCc4ccc(F)cc4F)c(=O)c(O)c3C(=O)N12 [PD, sodium (4R,12aS)-9-{[(2,4-difluorophenyl)methyl]carbamoyl}-4-methyl-6,8-dioxo-3,4,6,8,12,12a-hexahydro-2H-pyrido[1′, 2′:4,5]pyrazino[2,1-b][1,3]oxazin-7-olate]
protein bound to human plasma proteins (human plasma proteins): > 98.9%
Cmax ([1]; absorption): 7.97-14.70 μm
tmax ([1]; absorption): 30 to 120 min
Clearance ([1]; in vivo): 1 L/h
Half-life ([1]; in vivo): 14 h
drug eliminated from urine ([1]; in vivo): 32%
drug eliminated through feces ([1]; in vivo): 53%
T50 (time taken for 50% dissolution) [2]: 38.5 h
% of Dolutegravir Sodium Release ([2]; 0 hr, pH 6.8 phosphate buffer): 0%
% of Dolutegravir Sodium Release ([2]; 0.5 hr, pH 6.8 phosphate buffer): 7.38 ± 0.12%
% of Dolutegravir Sodium Release ([2]; 1 hr, pH 6.8 phosphate buffer): 13.45 ± 0.14%
% of Dolutegravir Sodium Release ([2]; 2 hr, pH 6.8 phosphate buffer): 15.27 ± 0.12%
% of Dolutegravir Sodium Release ([2]; 3 hr, pH 6.8 phosphate buffer): 15.79 ± 0.19%
% of Dolutegravir Sodium Release ([2]; 4 hr, pH 6.8 phosphate buffer): 16.92 ± 0.12%
% of Dolutegravir Sodium Release ([2]; 5 hr, pH 6.8 phosphate buffer): 17.82 ± 0.09%
% of Dolutegravir Sodium Release ([2]; 6 hr, pH 6.8 phosphate buffer): 18.33 ± 0.10%
% of Dolutegravir Sodium Release ([2]; 7 hr, pH 6.8 phosphate buffer): 20.13 ± 0.12%
% of Dolutegravir Sodium Release ([2]; 8 hr, pH 6.8 phosphate buffer): 20.27 ± 0.43%
% of Dolutegravir Sodium Release ([2]; 9 hr, pH 6.8 phosphate buffer): 22.27 ± 0.12%
% of Dolutegravir Sodium Release ([2]; 10 hr, pH 6.8 phosphate buffer): 22.45 ± 0.14%
% of Dolutegravir Sodium Release ([2]; 11 hr, pH 6.8 phosphate buffer): 25.23 ± 0.13%
% of Dolutegravir Sodium Release ([2]; 12 hr, pH 6.8 phosphate buffer): 26.45 ± 0.22%
DE5 (dissolution efficiency) ([2]; at 5 h, pH 6.8 phosphate buffer): 14.80%
Hixson Crowell (KH) ([2]; cube root dissolution rate constant): 0.124 mg^1/3/hr
First order (K1) ([2]; dissolution rate constant): 0.018 h⁻¹
Zero order (Ko) ([2]; dissolution rate constant): 1.566 mg/h
Correlation Coefficient Values (r) First order ([2]; drug release kinetics fit): 0.845
Correlation Coefficient Values (r) Hixson Crowell ([2]; drug release kinetics fit): 0.443
Correlation Coefficient Values (r) Zero order ([2]; drug release kinetics fit): 0.812
primarily metabolized by (UGT1A1): UGT1A1
IC50 [3]: 57.9 ± 4.6 µg/mL
Solubility: soluble in water ([4]; at 25° C.): 3.5 mg/mL
Particle Size ([4]; drug profile): 5 microns
solubility [5]: 1.6 µg/mL
